Assay results taken from patent US20170166592A1, “AZA-BENZIMIDAZOLE INHIBITORS OF PAD4” (Padlock Therapeutics, Inc., priority 2015, published 2017).
Counter-ions that a name gives are not always drawn. Like-named read-outs stand apart in the source and are kept apart here.

What was measured:
hPAD4 = hPAD4 (Homo sapiens, UniProt Q9UM07); test: PAD4 inhibition assay, RapidFire mass spectrometry (hPAD4 RFMS); assay type: biochemical
Description: Compounds of the present invention were assayed as inhibitors of PAD4 using the assay protocol described below.
Compounds were solubilised in 100% DMSO to achieve 100 mM final compound concentration. Compound stock solutions were stored at RT. A series of dilutions were prepared in DMSO and mixed 8 times with 20 μL, mixing volume. Final assay conditions were as follows:
Assay buffer (as aforementioned): 100 mM Tris-HCl (pH 7.6), 2 mM DTT, 1 mM CaCl2
Final concentrations: • 100 nM hPAD4 enzyme • 50 μM (8-fold sub-Km) substrate peptide • 0.5% DMSO
Total incubation time: 65 mins at 37° C.
Stop solution: 40 μl 5% TCA in ACN
0.25 μL of compound solution was added to 10 μL of 200 nM PAD4 in assay buffer (100 mM Tris-HCl pH 7.6, 2 mM DTT). After 5 mins, 10 μL of 100 μM of substrate in buffer (100 mM Tris-HCl pH 7.6, 2 mM DTT, 2 mM CaCl2) was added and the reaction incubated for 60 mins at 37 ° C. The enzymatic reaction was quenched by addition of 40 μl of 5% TCA in ACN (1.7% TCA final concentration) stop solution. Arginine containing substrate and citrulline containing product (+1 Da mass shift) were subjected to solid phase extraction on Agilent RapidFire (RF) 300 system and detected on a coupled, triple quadrupole Agilent 6460 QQQ mass spectrometry (MS) device under application of multiple reaction monitoring (MRM) for quantitation.

mPAD4 = mPAD4 (Mus musculus, UniProt Q9Z183); test: PAD4 inhibition assay, RapidFire mass spectrometry (mPAD4 RFMS); assay type: biochemical
[1] = 100 nM hPAD4 enzyme, 50 μM substrate peptide, 65 mins at 37° C., read-out: hPAD4 RFMS IC50
[2] = pIC50=-log(IC50), read-out: hPAD4 RFMS pIC50 (converted)
[3] = pIC50=-log(IC50), read-out: mPAD4 RFMS pIC50 (converted)

mPAD4, sequence (Q9Z183 whole entry): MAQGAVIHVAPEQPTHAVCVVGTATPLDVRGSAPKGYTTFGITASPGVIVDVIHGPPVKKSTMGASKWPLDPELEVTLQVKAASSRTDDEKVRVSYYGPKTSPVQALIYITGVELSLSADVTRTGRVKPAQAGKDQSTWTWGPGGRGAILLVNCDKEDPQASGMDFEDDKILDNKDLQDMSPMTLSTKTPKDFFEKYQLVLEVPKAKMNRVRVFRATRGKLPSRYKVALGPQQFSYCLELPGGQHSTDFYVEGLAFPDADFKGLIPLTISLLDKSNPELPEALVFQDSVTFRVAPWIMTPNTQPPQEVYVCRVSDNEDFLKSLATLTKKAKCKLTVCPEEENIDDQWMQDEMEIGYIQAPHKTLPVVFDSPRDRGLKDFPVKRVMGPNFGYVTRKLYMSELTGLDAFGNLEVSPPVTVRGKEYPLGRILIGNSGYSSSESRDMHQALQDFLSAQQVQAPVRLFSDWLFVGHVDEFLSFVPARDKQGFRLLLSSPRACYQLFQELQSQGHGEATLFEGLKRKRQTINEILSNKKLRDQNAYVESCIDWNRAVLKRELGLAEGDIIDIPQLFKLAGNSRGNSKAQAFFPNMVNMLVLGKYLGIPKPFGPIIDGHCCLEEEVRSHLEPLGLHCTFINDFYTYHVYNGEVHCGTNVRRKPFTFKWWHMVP
hPAD4, sequence (Q9UM07 whole entry): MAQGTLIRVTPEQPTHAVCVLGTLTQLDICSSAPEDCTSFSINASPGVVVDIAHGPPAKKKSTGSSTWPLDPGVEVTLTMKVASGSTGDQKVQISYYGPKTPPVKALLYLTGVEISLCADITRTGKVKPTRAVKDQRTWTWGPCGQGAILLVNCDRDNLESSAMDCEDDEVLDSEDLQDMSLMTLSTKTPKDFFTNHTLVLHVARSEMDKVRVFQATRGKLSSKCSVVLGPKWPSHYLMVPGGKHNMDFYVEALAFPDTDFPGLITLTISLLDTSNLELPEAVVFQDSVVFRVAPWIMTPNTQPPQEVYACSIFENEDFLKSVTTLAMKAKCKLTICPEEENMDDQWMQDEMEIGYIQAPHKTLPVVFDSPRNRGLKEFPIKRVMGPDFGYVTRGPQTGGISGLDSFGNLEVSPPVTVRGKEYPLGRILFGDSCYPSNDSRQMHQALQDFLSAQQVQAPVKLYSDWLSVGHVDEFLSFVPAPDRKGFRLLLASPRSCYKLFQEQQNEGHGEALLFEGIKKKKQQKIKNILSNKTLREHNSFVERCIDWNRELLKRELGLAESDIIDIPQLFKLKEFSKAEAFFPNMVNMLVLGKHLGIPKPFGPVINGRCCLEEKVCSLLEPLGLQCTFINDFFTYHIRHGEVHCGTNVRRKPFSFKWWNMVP

Row | SMILES | IC50 (hPAD4; [1]) [µM] | IC50 (hPAD4; [2]) [µM] | IC50 (mPAD4; [3]) [µM] | IC50 (mPAD4; read-out: mPAD4 RFMS IC50) [µM] | hPAD4 RFMS pIC50 (hPAD4; pIC50=-log(IC50))
1 | Cn1c(-c2cc3cccnc3n2CC2CC2)nc2cc(C(=O)N3CC[C@H]4CCN[C@H]4C3)cnc21 (single isomer, unassigned) [Compound I-9, hydrochloride] | ≥ 10 | 10 to 100 | – | – | –
2 | Cn1c(-c2cc3cccnc3n2CC2CC2)nc2cc(C(=O)N3CC[C@@H]4CCN[C@@H]4C3)cnc21 (single isomer, unassigned) [Compound I-10, hydrochloride] | 1 to 5 | 1 to 10 | 1 to 10 | 5 to 10 | –
3 | Cn1c(-c2cc3cccnc3n2CC(F)(F)F)nc2cc(C(=O)N3CC[C@@H]4CCN[C@@H]4C3)cnc21 [Compound I-1] | ≥ 10 | 10 to 100 | – | – | –
4 | Cn1c(-c2cc3cccnc3n2CC(F)(F)F)nc2cc(C(=O)N3CC[C@H]4CCN[C@H]4C3)cnc21 [Compound I-3] | ≥ 10 | – | – | – | –
5 | CCn1c(-c2nc3cc(C(=O)N4CCC[C@@H](N)C4)cnc3n2CC)cc2cccnc21 [Compound I-4] | 5 to 10 | 1 to 10 | 1 to 10 | 1 to 5 | –
6 | Cn1c(-c2cc3cccnc3n2CC(F)(F)F)nc2cc(C(=O)N3CCC[C@@H](N)C3)cnc21 [Compound I-5] | ≥ 10 | 10 to 100 | – | – | –
7 | Cn1c(-c2cc3cccnc3n2CC(F)(F)F)nc2cc(C(=O)N3CCC4CCNC4C3)cnc21 (stereo not drawn) [Compound I-6] | ≥ 10 | 10 to 100 | – | – | –
8 | Cn1c(-c2cc3cccnc3n2CC2CC2)nc2cc(C(=O)N3CCC[C@@H](N)C3)cnc21 [Compound I-7] | 1 to 5 | 1 to 10 | ≤ 1 | ≤ 1 | –
9 | Cn1c(-c2cc3cccnc3n2CC2CC2)nc2cc(C(=O)N3CCC4CCNC4C3)cnc21 (stereo not drawn) [Compound I-8, 2-[1-(cyclopropylmethyl)-1H-pyrrolo[2,3-b]pyridin-2-yl]-3-methyl-6-{octahydro-1H-pyrrolo[2,3-c]pyridine-6-carbonyl}-3H-imidazo[4,5-b]pyridine hydrochloride] | 5 to 10 | 1 to 10 | – | – | –
10 | Cn1c(-c2cc3cccnc3n2CC(C)(F)F)nc2cc(C(=O)N3CCC[C@@H](N)C3)cnc21 [Compound I-11] | 5 to 10 | 1 to 10 | 1 to 10 | 5 to 10 | –
11 | N[C@@H]1CCCN(C(=O)c2cnc3c(c2)nc(-c2cc4cccnc4n2CC2CC2)n3CC(F)F)C1 [Compound I-12] | 1 to 5 | 1 to 10 | 1 to 10 | 1 to 5 | –
12 | Cn1c(-c2cc3cccnc3n2CC2CC2)nc2cc(C(=O)N3C[C@@H](N)C[C@H](F)C3)cnc21 [Compound I-13] | 1 to 5 | 1 to 10 | ≤ 1 | ≤ 1 | –
13 | Cn1c(-c2cc3cc(F)c(F)nc3n2CC2CC2)nc2cc(C(=O)N3CCC[C@@H](N)C3)cnc21 [Compound I-14] | 1 to 5 | 1 to 10 | ≤ 1 | ≤ 1 | –
14 | CCn1c(-c2cc3ccc(OC)nc3n2CC2CC2)nc2cc(C(=O)N3CCC[C@@H](N)C3)cnc21 [Compound I-16] | ≤ 1 | ≤ 1 | ≤ 1 | ≤ 1 | –
15 | Cn1c(-c2cc3cccnc3n2CC(F)(F)F)nc2cc(C(=O)N3CCC4CCNC4C3)cnc21 (stereo not drawn) [Compound I-19] | ≥ 10 | – | – | – | –
16 | Cn1c(-c2cc3cccnc3n2CC(F)(F)F)nc2cc(C(=O)N3CC[C@H]4CCN[C@H]4C3)cnc21 [Compound I-20] | ≥ 10 | 10 to 100 | – | – | –
17 | Cn1c(-c2cc3cccnc3n2CC(F)(F)F)nc2cc(C(=O)N3CC[C@@H]4CCN[C@@H]4C3)cnc21 [Compound I-21] | ≥ 10 | – | – | – | E/F

Row | SMILES | IC50 (hPAD4; [1]) [µM] | IC50 (hPAD4; [2]) [µM] | IC50 (mPAD4; [3]) [µM] | IC50 (mPAD4; read-out: mPAD4 RFMS IC50) [µM] | hPAD4 RFMS pIC50 (hPAD4; pIC50=-log(IC50))
18 | CCn1c(-c2cc3cccnc3n2CC2CC2)nc2cc(C(=O)N3CCC[C@@H](N)C3)cnc21 [Compound I-22] | 1 to 5 | 1 to 10 | ≤ 1 | ≤ 1 | –
19 | Cn1c(-c2cc3cccnc3n2CC2CC2)nc2cc(C(=O)N3CCC4CCNC4C3)cnc21 (stereo not drawn) [Compound I-24] | 5 to 10 | – | – | – | –
20 | Cn1c(-c2cc3cccnc3n2CC2CC2)nc2cc(C(=O)N3CC[C@H]4CCN[C@H]4C3)cnc21 [Compound I-25] | ≥ 10 | 10 to 100 | – | – | –
21 | Cn1c(-c2cc3cccnc3n2CC2CC2)nc2cc(C(=O)N3CC[C@@H]4CCN[C@@H]4C3)cnc21 [Compound I-26] | 1 to 5 | 1 to 10 | 1 to 10 | 5 to 10 | –
22 | Cn1c(-c2cc3cc(F)c(F)cc3n2CC2CC2)nc2cc(C(=O)N3CCC[C@@H](N)C3)cnc21 [Compound I-30] | 1 to 5 | 1 to 10 | ≤ 1 | ≤ 1 | –
23 | CC1CCC(N)CN1C(=O)c1cnc2c(c1)nc(-c1cc3cccnc3n1CC1CC1)n2C (stereo not drawn) [Compound I-32] | 1 to 5 | 1 to 10 | 1 to 10 | 5 to 10 | –
24 | CCn1c(-c2nc3cc(C(=O)N4C[C@H]5CC[C@@H]4[C@@H]5N)cnc3n2C)cc2ccc(OC)nc21 [Compound I-37] | ≤ 1 | ≤ 1 | ≤ 1 | ≤ 1 | –
25 | CCn1c(-c2nc3cc(C(=O)N4C[C@H]5CC[C@@H]4[C@@H]5N)cnc3n2C)cc2cccnc21 [Compound I-39] | 1 to 5 | 1 to 10 | 1 to 10 | 1 to 5 | –
26 | Cn1c(-c2cc3cccnc3n2CC2CC2)nc2cc(C(=O)N3C[C@H]4CC[C@@H]3[C@@H]4N)cnc21 [Compound I-41] | ≤ 1 | ≤ 1 | ≤ 1 | ≤ 1 | –
27 | CCn1c(-c2nc3cc(C(=O)N4CCC[C@@H](N)C4)cnc3n2CCOC)cc2cccnc21 [Compound I-42] | ≥ 10 | 10 to 100 | 1 to 10 | 1 to 5 | –
28 | CCn1c(-c2nc3cc(C(=O)N4C[C@H]5CC[C@@H]4[C@@H]5N)cnc3n2CCOC)cc2cccnc21 [Compound I-43] | 1 to 5 | 1 to 10 | 1 to 10 | 1 to 5 | –
29 | COc1ccc2cc(-c3nc4cc(C(=O)N5C[C@H]6CC[C@@H]5[C@@H]6N)cnc4n3C)n(CC3CC3)c2n1 [Compound I-44] | ≤ 1 | ≤ 1 | ≤ 1 | ≤ 1 | –
30 | COCCn1c(-c2cc3cccnc3n2CC2CC2)nc2cc(C(=O)N3C[C@H]4CC[C@@H]3[C@@H]4N)cnc21 [Compound I-45] | ≤ 1 | ≤ 1 | 1 to 10 | 1 to 5 | –
31 | COCCn1c(-c2cc3cccnc3n2CC2CC2)nc2cc(C(=O)N3CCC[C@@H](N)C3)cnc21 [Compound I-46] | 1 to 5 | 1 to 10 | 1 to 10 | 1 to 5 | –
32 | COCCn1c(-c2cc3ccc(OC)nc3n2CC2CC2)nc2cc(C(=O)N3C[C@H]4CC[C@@H]3[C@@H]4N)cnc21 [Compound I-47] | ≤ 1 | ≤ 1 | ≤ 1 | ≤ 1 | –
33 | CCn1c(-c2nc3cc(C(=O)N4C[C@H]5CC[C@@H]4[C@@H]5N)cnc3n2CCOC)cc2ccc(OC)nc21 [Compound I-48] | ≤ 1 | ≤ 1 | 1 to 10 | 1 to 5 | –
34 | CCn1c(-c2nc3cc(C(=O)N4CCC[C@@H](N)C4)cnc3n2CCOC)cc2ccc(OC)nc21 [Compound I-49] | 5 to 10 | 1 to 10 | 1 to 10 | 1 to 5 | –
